# Assay results from US8835481B2, “1-benzyl-3-hydroxymethylindazole derivatives and use thereof in the treatment of diseases based on the expression of MCP-1, CX3CR1 and P40” (Aziende Chimiche Riunite Angelini Francesco A.C.R.A.F. …, priority 2008, dated 2014).
# Legend:
# [1] = system: MCP-1 protein production by LPS-stimulated MonoMac6 cells; assay: Measurement of the production of MCP-1 in a human monocyte line (ELISA); format: cell-based; conditions: 1 h pre-incubation, LPS 100 ng/ml 20 h, MonoMac6 supernatant; for inhibition at 300 µM: MONO-MAC-6, compound 300 μM (maximum soluble concentration); for inhibition at 150 µM: MONO-MAC-6, compound 150 μM (maximum soluble concentration); for inhibition at 30 µM: MONO-MAC-6, compound 30 μM (maximum soluble concentration)
# Protocol: (§1) The capacity of the compounds to inhibit the expression of the protein MCP-1 by lipopolysaccharide (LPS)-stimulated MonoMac6 cells was evaluated. The cells were placed in 96-well plates at a concentration of 50 000 cells/well. The compounds were tested at the maximum soluble concentration given in Table 2 (in the range 30-300 μM) and incubated for 1 hour. The cells were then stimulated with LPS (100 ng/ml) for 20 hours.
# The amount of MCP-1 produced was measured in the supernatants, suitably diluted with buffer, by means of an immunoenzymatic test (ELISA) using a commercial kit (ELISA MCP-1/JE, R&D Systems).
# [2] = system: MCP-1 expression by LPS-stimulated MonoMac6 cells; assay: Analysis of the gene expression of MCP-1 in a human monocyte line (real-time RT-PCR); format: cell-based; conditions: 1 h pre-incubation, LPS 100 ng/ml 4 h
# Protocol: as §1, with “of” for “of the protein”, “1” for “2”, “4” for “20”
# (§2) The total RNA was extracted from the cell pellet using the RNeasy mini kit (Qiagen), reverse-transcribed with the TaqMan Reverse transcription reagents synthesis kit (Applied Biosystems) and the cDNA obtained was used for the real-time PCR reaction. The amplification was obtained in 96-well plates using the ABI Prism 7000 sequence detection system (Applied Biosystems), by applying the following temperature profile: 50° C. for 2 minutes, 95° C. for 10 minutes and 45 cycles at 95° C. for 15 seconds and 60° C. for 1 minute. For the amplification, a set of primers and probe specific for human MCP-1 was used (Applied Biosystems, RefSeq NM_002982.3). A set of primers and probe for β-actin was used in separate wells as an internal control of the samples for the purposes of normalization. Once the reaction had taken place, the fluorescence data were analysed using the ABI Prism 7000 SDS software, by calculating the threshold cycle (Ct) for each sample and subsequently performing a relative quantification via the ΔΔCt method.
# [3] = system: p40 expression by LPS-stimulated MonoMac6 cells; assay: Analysis of the gene expression of p40 in a human monocyte line (real-time RT-PCR); format: cell-based; conditions: 1 h pre-incubation, LPS 100 ng/ml 4 h, read-out: % inhibition of p40 expression (mRNA); for inhibition at 300 µM: MONO-MAC-6, compound 300 μM (maximum soluble concentration)
# Protocol: as §1, with “p40” for “the protein MCP-1”, “4” for “2”, “4” for “20”
# as §2, with “For the amplification, a set of primers and probe specific for human MCP-1 was used (Applied Biosystems, RefSeq NM_002982.3).” left out
# [4] = system: CX3CR1 expression by LPS-stimulated MonoMac6 cells; assay: Analysis of the gene expression of CX3CR1 in a human monocyte line (real-time RT-PCR); format: cell-based; conditions: 1 h pre-incubation, LPS 100 ng/ml 20 h, read-out: % inhibition of CX3CR1 expression (mRNA); for inhibition at 300 µM: MONO-MAC-6, compound 300 μM (maximum soluble concentration); for inhibition at 150 µM: MONO-MAC-6, compound 150 μM (maximum soluble concentration)
# Protocol: The capacity of the compounds to inhibit the expression of CX3CR1 by lipopolysaccharide (LPS)-stimulated MonoMac6 cells was evaluated. The cells were placed in 96-well plates at a concentration of 50 000 cells/well. […] The cells were then stimulated with LPS (100 ng/ml) for 20 hours.
# as §2, with “For the amplification, a set of primers and probe specific for human MCP-1 was used (Applied Biosystems, RefSeq NM_002982.3).” left out
# [5] = compound 300 μM (maximum soluble concentration)
# [6] = compound 150 μM (maximum soluble concentration)
# [7] = MONO-MAC-6, compound 30 μM (maximum soluble concentration)
melting point,SMILES,inhibition at 300 µM [1],"% inhibition of MCP-1 expression (mRNA) [2, 5]",inhibition at 300 µM [3],inhibition at 300 µM [4],inhibition at 150 µM [1],further results
–,"CC(C)(OCc1nn(C(=O)c2ccccc2)c2ccccc12)C(=O)O [Compound 3, 2-[(1-benzoyl-1H-indazol-3-yl)methoxy]-2-methylpropanoic acid]",83%,65%,64%,99%,–,–
–,"O=C(O)COCc1nn(Cc2ccc(F)cc2)c2ccccc12 [Compound 17, {[1-(4-fluorobenzyl)-1H-indazol-3-yl]methoxy}acetic acid]",39%,26%,61%,90%,–,–
94 to 95 °C,"CC(C)(OCCOCc1nn(Cc2ccccc2)c2ccccc12)C(=O)O [Compound 20, 2-{2-[(1-benzyl-1H-indazol-3-yl)methoxy]ethoxy}-2-methylpropanoic acid]",73%,29%,58%,89%,–,–
–,"CC(C)(OCc1nn(Cc2ccccc2)c2ccc([N+](=O)[O-])cc12)C(=O)O [Compound 6, 2-[(1-benzyl-5-nitro-1H-indazol-3-yl)methoxy]-2-methylpropanoic acid]",–,–,–,–,100%,"% inhibition of MCP-1 expression (mRNA) [2, 6]: 95%; inhibition at 150 µM [4]: 98%"
–,"O=C(O)COCc1nn(Cc2ccc(Cl)cc2Cl)c2ccccc12 [Compound 18, {[1-(2,4-dichlorobenzyl)-1H-indazol-3-yl]methoxy}acetic acid]",–,–,–,–,–,inhibition at 30 µM [1]: 35%
168 to 170 °C,"CC(C)(OCc1nn(Cc2ccccc2)c2ccc(Br)cc12)C(=O)O [Compound 23, 2-[(1-benzyl-5-bromo-1H-indazol-3-yl)methoxy]-2-methylpropanoic acid]",–,–,–,–,–,–
–,"O=C(O)COCCOCc1nn(Cc2ccccc2)c2ccccc12 [Compound 19, {2-[(1-benzyl-1H-indazol-3-yl)methoxy]ethoxy}acetic acid]",63%,–,–,–,–,–
169 to 171 °C,"COc1ccc(Cn2nc(COC(C)(C)C(=O)O)c3ccccc32)cc1 [Compound 1, 2-{[1-(4-methoxybenzyl)-1H-indazol-3-yl]methoxy}-2-methylpropanoic acid]",80%,57%,50%,97%,–,–
–,"Cc1ccc(Cn2nc(COC(C)(C)C(=O)O)c3ccccc32)cc1 [Compound 22, 2-{[1-(4-methylbenzyl)-1H-indazol-3-yl]methoxy}-2-methylpropanoic acid]",–,–,–,–,37%,–
–,"CC(C)(OCCCOCc1nn(Cc2ccccc2)c2ccccc12)C(=O)O [Compound 21, 2-{3-[(1-benzyl-1H-indazol-3-yl)methoxy]propoxy}-2-methylpropanoic acid]",88%,61%,50%,97%,–,–
145 to 147 °C,"CC(C)(OCc1nn(Cc2ccccc2)c2ccc(Cl)cc12)C(=O)O [Compound 5, 2-[(1-benzyl-5-chloro-1H-indazol-3-yl)methoxy]-2-methylpropanoic acid]",–,–,–,–,82%,–
128 to 130 °C,"COc1ccc2c(c1)c(COC(C)(C)C(=O)O)nn2Cc1ccccc1 [Compound 2, 2-[(1-benzyl-5-methoxy-1H-indazol-3-yl)methoxy]-2-methylpropanoic acid]",66%,–,–,–,–,–
–,"CC(C)(OCc1nn(C2CCCc3ccccc32)c2ccccc12)C(=O)O (centres unmarked) [Compound 8, 2-methyl-2-{[1-(1,2,3,4-tetrahydronaphth-1-yl)-1H-indazol-3-yl]methoxy}-propanoic acid]",–,–,–,–,77%,–
–,"CC(C)(OCc1nn(Cc2ccc(Cl)cc2)c2ccccc12)C(=O)O [Compound 4, 2-{[1-(4-chlorobenzyl)-1H-indazol-3-yl]methoxy}-2-methylpropanoic acid]",–,–,–,–,54%,"% inhibition of MCP-1 expression (mRNA) [2, 6]: 26%; inhibition at 150 µM ([3]; MONO-MAC-6, compound 150 μM (maximum soluble concentration)): 48%; inhibition at 150 µM [4]: 87%"
–,"CC(C)(OCc1nn(Cc2ccc(Cl)c(Cl)c2)c2ccccc12)C(=O)O [Compound 7, 2-{[1-(3,4-dichlorobenzyl)-1H-indazol-3-yl]methoxy}-2-methylpropanoic acid]",–,–,–,–,–,"inhibition at 30 µM [1]: 29%; inhibition at 30 µM [3, 7]: 47%; inhibition at 30 µM [4, 7]: 85%"
